The values that follow are results of earlier work, collected in PubChem BioAssay AID1259409 (Chemical Carcinogenesis Research Information System (CCRIS), 2018).

The data set concerns rodent chemically induced tumor inhibition, incidence and multiplicity. The data set can be described thus: CCRIS tumor inhibitor studies. To be noted: Promoter: NONE USED.

For `[Mo].[Na+].[Na+].[O-2].[O-2].[O-2].[O-2]`, the “tumour outcome (control, treated, inhibition, significance)” value was 30/41 (73%), 20/45 (44%), 40%, p<0.01 (Carcinogen: N-METHYL-N-BENZYLNITROSAMINE, 937-40-6, Dose [Inhibitor]: 0.32 (BASAL MOLYBDENUM LEVEL), 2 PPM (HIGH MOLYBDENUM LEVEL) IN DIET BEGINNING 4 WK PRIOR TO CARCINOGEN DOSE AND CONTINU, Route [Inhibitor]: ORAL, Species: RAT, Strain/Sex: F344/MALE, Target Tissue: Type of Lesion: ESOPHAGUS: CARCINOMA, Dose [Carcinogen]: 2.5 MG/KG IN 0.2 ML OLIVE OIL 1/WK FOR 20 WK) and 6/20 (30%), 1/14 (7%), 77%, p>0.05 (Carcinogen: N-METHYL-N-NITROSOUREA, 684-93-5, Dose [Inhibitor]: 20 PPM IN DRINKING WATER CONCURRENTLY WITH THE CARCINOGEN (STUDY DURATION: 56 WK), Route [Inhibitor]: ORAL, Species: RAT, Strain/Sex: BD6/MALE, Target Tissue: Type of Lesion: INTESTINE: ADENOCARCINOMA, Dose [Carcinogen]: 25 MG/KG 2/WK FOR 15 WK).
In the case of `CCCCCCCCCCCC`, where the note is “Carcinogen: 4-(METHYLNITROSAMINO)-1-(3-PYRIDYL)-1-BUTANONE, 64091-91-4, Dose [Inhibitor]: 0, 1 UMOL IN 0.1 ML CORN OIL ONCE 2 HR PRIOR TO CARCINOGEN DOSE (STUDY DURATION: 16 WK), Route [Inhibitor]: GAVAGE, Species: MOUSE, Strain/Sex: STRAIN-A/FEMALE, Target Tissue: Type of Lesion: LUNG: ADENOMA, Dose [Carcinogen]: 10 UMOL IN 0.1 ML SALINE ONCE”, the “tumour outcome (control, treated, inhibition, significance)” value is 100%, 100%, 0%, not significant.
Take `CCCCCCCCCCCCCCCC(=O)OCC1(O)CC23CC[C@@H]4c5ccoc5C=CC4(C)C2CCC1C3` (some centres undefined): the “tumour outcome (control, treated, inhibition, significance)” value (Carcinogen: 7,12-DIMETHYLBENZ[A]ANTHRACENE, 57-97-6, Dose [Inhibitor]: 0, 60 MG 1/D FOR 3 D BEGINNING 3 D PRIOR TO CARCINOGEN DOSE (STUDY DURATION: 20 WK), Route [Inhibitor]: GAVAGE, Species: RAT, Strain/Sex: SPRAGUE-DAWLEY/FEMALE, Target Tissue: Type of Lesion: MAMMARY GLAND: TUMOR, Dose [Carcinogen]: 12 MG IN 1 ML OLIVE OIL ONCE) is listed as 84%, 56%, 33%, p<0.05 and the “tumour outcome (control, treated, inhibition, significance)” value (Carcinogen: 7,12-DIMETHYLBENZ[A]ANTHRACENE, 57-97-6, Dose [Inhibitor]: 0, 60 MG ONCE 4 HR PRIOR TO CARCINOGEN DOSE (STUDY DURATION: 20 WK), Route [Inhibitor]: GAVAGE, Species: RAT, Strain/Sex: SPRAGUE-DAWLEY/FEMALE, Target Tissue: Type of Lesion: MAMMARY GLAND: TUMOR, Dose [Carcinogen]: 12 MG IN 1 ML OLIVE OIL ONCE) was 84%, 63%, 25%, p<0.05.
With `N[C@@H](CCC(=O)N[C@@H](CS)C(=O)NCC(=O)O)C(=O)O`, the “tumour outcome (control, treated, inhibition, significance)” value (Carcinogen: TRANS-5-AMINO-3-[2-(5-NITRO-2-FURYL)VINYL]-1,2,4-OXADIAZOLE;SQL8506, 28754-68-9, Carcinogen: TRANS-5-AMINO-3-[2-(5-NITRO-2-FURYL)VINYL]-1,2,4-OXADIAZOLE;SQL8506, 28754-68-9, Dose [Inhibitor]: 400 MG/KG 16 HR BEFORE THE 1ST CARCINOGEN DOSE FOLLOWED BY ADDITIONAL INJECTIONS IMMEDIATELY BEFORE EACH DOSE OF CARCINO, Route [Inhibitor]: INTRAPERITONEAL, Species: MOUSE, Strain/Sex: CD-1/FEMALE, Target Tissue: Type of Lesion: HEMATOPOIETIC SYSTEM: MYELOID LEUKEMIA, Dose [Carcinogen]: 1 G/KG 2/D FOR 5 D EVERY 4 WK FOR 3 COURSES OF TREATMENT) is 7/137 (5%), 2/35 (6%), -20%, not calculated; the “tumour outcome (control, treated, inhibition, significance)” value (Carcinogen: TRANS-5-AMINO-3-[2-(5-NITRO-2-FURYL)VINYL]-1,2,4-OXADIAZOLE;SQL8506, 28754-68-9, Carcinogen: TRANS-5-AMINO-3-[2-(5-NITRO-2-FURYL)VINYL]-1,2,4-OXADIAZOLE;SQL8506, 28754-68-9, Dose [Inhibitor]: 400 MG/KG 16 HR BEFORE THE 1ST CARCINOGEN DOSE FOLLOWED BY ADDITIONAL INJECTIONS IMMEDIATELY BEFORE EACH DOSE OF CARCINO, Route [Inhibitor]: INTRAPERITONEAL, Species: MOUSE, Strain/Sex: CD-1/FEMALE, Target Tissue: Type of Lesion: LYMPHOID TISSUE: NONTHYMIC LYMPHOMA, Dose [Carcinogen]: 1 G/KG 2/D FOR 5 D EVERY 4 WK FOR 3 COURSES OF TREATMENT) was 8/137 (6%), 3/35 (8%), -33%, not calculated; the “tumour outcome (control, treated, inhibition, significance)” value (Carcinogen: TRANS-5-AMINO-3-[2-(5-NITRO-2-FURYL)VINYL]-1,2,4-OXADIAZOLE;SQL8506, 28754-68-9, Carcinogen: TRANS-5-AMINO-3-[2-(5-NITRO-2-FURYL)VINYL]-1,2,4-OXADIAZOLE;SQL8506, 28754-68-9, Dose [Inhibitor]: 400 MG/KG 16 HR BEFORE THE 1ST CARCINOGEN DOSE FOLLOWED BY ADDITIONAL INJECTIONS IMMEDIATELY BEFORE EACH DOSE OF CARCINO, Route [Inhibitor]: INTRAPERITONEAL, Species: MOUSE, Strain/Sex: CD-1/FEMALE, Target Tissue: Type of Lesion: LYMPHOID TISSUE: THYMIC LYMPHOMA, Dose [Carcinogen]: 1 G/KG 2/D FOR 5 D EVERY 4 WK FOR 3 COURSES OF TREATMENT) was 22/137 (16%), 2/35 (6%), 62%, not calculated; the “tumour outcome (control, treated, inhibition, significance)” value (Carcinogen: TRANS-5-AMINO-3-[2-(5-NITRO-2-FURYL)VINYL]-1,2,4-OXADIAZOLE;SQL8506, 28754-68-9, Carcinogen: TRANS-5-AMINO-3-[2-(5-NITRO-2-FURYL)VINYL]-1,2,4-OXADIAZOLE;SQL8506, 28754-68-9, Dose [Inhibitor]: 400 MG/KG 16 HR BEFORE THE 1ST CARCINOGEN DOSE FOLLOWED BY ADDITIONAL INJECTIONS IMMEDIATELY BEFORE EACH DOSE OF CARCINO, Route [Inhibitor]: INTRAPERITONEAL, Species: MOUSE, Strain/Sex: CD-1/FEMALE, Target Tissue: Type of Lesion: STOMACH: SQUAMOUS CARCINOMA, Dose [Carcinogen]: 1 G/KG 2/D FOR 5 D EVERY 4 WK FOR 3 COURSES OF TREATMENT) is recorded as 60/137 (44%), 12/35 (34%), 23%, not calculated.
Consider `O=C1CC[C@@]2(O)[C@H]3Cc4ccc(O)c5c4[C@@]2(CCN3CC2CC2)[C@H]1O5`, for which the “tumour outcome (control, treated, inhibition, significance)” value by setting is: (Carcinogen: 7,12-DIMETHYLBENZ[A]ANTHRACENE, 57-97-6, Dose [Inhibitor]: 0, 75 MG/KG DIET FOR 20 D BEGINNING 10 D PRIOR TO CARCINOGEN DOSE (STUDY DURATION: 130 D), Route [Inhibitor]: ORAL, Species: RAT, Strain/Sex: SPRAGUE-DAWLEY/FEMALE, Target Tissue: Type of Lesion: MAMMARY GLAND: TUMOR, Dose [Carcinogen]: 15 MG IN 0.1 ML OF SESAME OIL ONCE) 100%, 73%, 27%, not significant; (Carcinogen: 7,12-DIMETHYLBENZ[A]ANTHRACENE, 57-97-6, Dose [Inhibitor]: 0, 75 MG/KG DIET FOR 109 D BEGINNING 11 D POST CARCINOGEN DOSE (STUDY DURATION: 130 D), Route [Inhibitor]: ORAL, Species: RAT, Strain/Sex: SPRAGUE-DAWLEY/FEMALE, Target Tissue: Type of Lesion: MAMMARY GLAND: TUMOR, Dose [Carcinogen]: 15 MG IN 0.1 ML OF SESAME OIL ONCE) 92%, 36%, 61%, p=0.0024; (Carcinogen: 7,12-DIMETHYLBENZ[A]ANTHRACENE, 57-97-6, Dose [Inhibitor]: 0, 75 MG/KG DIET FOR 130 D BEGINNING 10 D PRIOR TO CARCINOGEN DOSE (STUDY DURATION: 130 D), Route [Inhibitor]: ORAL, Species: RAT, Strain/Sex: SPRAGUE-DAWLEY/FEMALE, Target Tissue: Type of Lesion: MAMMARY GLAND: TUMOR, Dose [Carcinogen]: 15 MG IN 0.1 ML OF SESAME OIL ONCE) 83%, 46%, 45%, p=0.053; (Carcinogen: DIMETHYLBENZ[A]ANTHRACENE, 57-97-6, Dose [Inhibitor]: 0, 1 MG/KG/D ADMINISTERED TO RESTRAINT-STRESSED RATS BEGINNING 2 DAYS POST CARCINOGEN DOSE AND CONTINUING FOR 18 WK (STU, Route [Inhibitor]: INTRAPERITONEAL, Species: RAT, Strain/Sex: F344/FEMALE, Target Tissue: Type of Lesion: MAMMARY GLAND: TUMOR, Dose [Carcinogen]: 15 MG/ML SESAME OIL ONCE) 32%, 12%, 63%, not calculated; (Carcinogen: DIMETHYLBENZ[A]ANTHRACENE, 57-97-6, Dose [Inhibitor]: 0, 1 MG/KG/D BEGINNING 2 DAYS POST CARCINOGEN DOSE AND CONTINUING FOR 18 WK (STUDY DURATION: 18 WK), Route [Inhibitor]: INTRAPERITONEAL, Species: RAT, Strain/Sex: F344/FEMALE, Target Tissue: Type of Lesion: MAMMARY GLAND: TUMOR, Dose [Carcinogen]: 15 MG/ML SESAME OIL ONCE) 27%, 15%, 44%, not calculated.
